Test results as given in patent publication US5763597A, “Orally active adenosine kinase inhibitors” (priority 1996, dated 1998).

How the values were obtained:
[1] = tested on: liver enzymes and total bilirubin in female SA rats; assay: Liver toxicity (serum liver enzymes and bilirubin); assay type: in vivo; settings: rat, 2 x 37.5 μmole/kg iv infusion, 12 h after second dose; for Total Bilirubin: vehicle 0.10 ±0.04; for SGPT: vehicle 80 ±10; for SGOT: vehicle 102 ±12; for Alkaline Phosphatase: vehicle 140 ±50
Procedure: Female SA rats (150-200 g) were anesthetized with halothane and a chronic catheter was placed in the internal jugular vein. The animals were allowed to recover for 3 days. […] Twelve hours later, an additional 37.5 μmole/kg was infused over 40 minutes (total dose=75 μmole/kg). Twelve hours after the second dose, the animals were anesthetized with halothane and exsanguinated through the descending aorta. Liver enzymes (serum glutamic-oxaloacetic transaminase (SGOT), serum glutamic-pyruvic transaminase (SGPT), alkaline phosphatase) and total bilirubin in the serum samples were determined by a commercial laboratory.

adenosine kinase = assay: AK inhibition (adenosine kinase activity, [U-14C] adenosine); assay type: biochemical, partially purified pig heart or recombinant human; settings: 0.5 μM adenosine, 1 mM ATP, pH 7.0, 20 min; pig heart or recombinant human enzyme
Procedure: Adenosine kinase activity was measured essentially as described by Yamada et al. Biochim. Biophys. Acta 660, 3643 (1988) with a few minor modifications. Assay mixtures contained 50 mM TRIS-maleate buffer, pH 7.0, 0.1% BSA, 1 mM ATP 1 mM MgCl2, 0.5 μM [U-^14 C] adenosine (400-600 mCi/mmol) and varying duplicate concentrations of inhibitor. […] The amount of ^14 C-AMP was quantified by scintillation counting.

[2] = tested on: carrageenan paw swelling in rats; assay: Anti-inflammatory activity, carrageenan paw swelling; assay type: in vivo; settings: rat, swelling after 3 hours; for Carrageenan Paw (% inh) ip: 10 mg/kg ip, 30 min before carrageenan; for Carrageenan Paw (% inh) po: 10 mg/kg po, 1 h before carrageenan

Row | IC50 (adenosine kinase) [nM] | SMILES | also measured
1 | – | C[C@H]1O[C@@H](n2cc(I)c3c(N)ncnc32)[C@H](O)[C@@H]1O [REF. A, reference compound] | Total Bilirubin [1]: 0.76 mg/dL; SGPT [1]: 76 IU/L
2 | – | NC[C@H]1O[C@@H](n2nc(Br)c3c(N)ncnc32)[C@H](O)[C@@H]1O [REF. B, 4amino-1-(5-amino-5-deoxy-1-D-ribofuranosyl)-3-bromopyrazolo[3,4d]pyrimidine, reference compound] | Total Bilirubin [1]: 0.30 mg/dL; SGPT [1]: 41 IU/L; SGOT [1]: 100 IU/L
3 | 1 | C[C@H]1O[C@@H](n2cc(-c3ccccc3)c3c(Nc4cc(F)cc(F)c4)ncnc32)[C@H](O)[C@@H]1O [compound 10] | –
4 | 4 | C[C@H]1O[C@@H](n2cc(-c3ccccc3)c3c(Nc4ccc(F)c(F)c4)ncnc32)[C@H](O)[C@@H]1O [compound 11] | –
5 | 16 | C[C@H]1O[C@@H](n2cc(-c3cccc(Cl)c3)c3c(Nc4ccccc4)ncnc32)[C@H](O)[C@@H]1O [compound 15] | –
6 | 9 | Cc1ccc(-c2cn([C@@H]3O[C@H](C)[C@@H](O)[C@H]3O)c3ncnc(Nc4ccccc4)c23)cc1 [compound 16] | –
7 | 17 | C[C@H]1O[C@@H](n2cc(-c3ccccc3)c3c(Nc4cccc(Cl)c4)ncnc32)[C@H](O)[C@@H]1O [compound 17] | –
8 | 4 | Cc1cccc(Nc2ncnc3c2c(-c2ccccc2)cn3[C@@H]2O[C@H](C)[C@@H](O)[C@H]2O)c1 [compound 18] | –
9 | 20 | CCc1ccc(Nc2ncnc3c2c(-c2ccccc2)cn3[C@@H]2O[C@H](C)[C@@H](O)[C@H]2O)cc1 [compound 29] | Carrageenan Paw (% inh) ip [2]: 46.1 % inh; Carrageenan Paw (% inh) po [2]: 10.7 % inh
10 | 28 | C[C@H]1O[C@@H](n2cc(-c3cccc([N+](=O)[O-])c3)c3c(Nc4ccc(F)cc4)ncnc32)[C@H](O)[C@@H]1O [compound 30] | –
11 | 30 | C[C@H]1O[C@@H](n2cc(-c3ccccc3)c3c(NCc4ccccc4)ncnc32)[C@H](O)[C@@H]1O [compound 38] | –
12 | 42 | C[C@H]1O[C@@H](n2c(Br)c(-c3ccccc3)c3c(Nc4ccc(F)cc4)ncnc32)[C@H](O)[C@@H]1O [compound 41] | –
13 | 5 | OC[C@H]1O[C@@H](n2nc(-c3ccccc3)c3c(Nc4ccccc4)ncnc32)[C@H](O)[C@@H]1O [compound 88] | –
14 | 17 | COc1ccc(Nc2ncnc3c2c(-c2ccccc2)nn3[C@@H]2O[C@H](C)[C@@H](O)[C@H]2O)cc1 [compound 89] | –
15 | 8 | COc1ccc(Nc2ncnc3c2c(-c2ccccc2)nn3[C@@H]2O[C@H](CN=[N+]=[N-])[C@@H](O)[C@H]2O)cc1 [compound 90] | –
16 | 11 | C[C@H]1O[C@@H](n2nc(-c3ccccc3)c3c(Nc4ccc(Cl)cc4)ncnc32)[C@H](O)[C@@H]1O [compound 91] | –
17 | 17 | [N-]=[N+]=NC[C@H]1O[C@@H](n2nc(-c3ccccc3)c3c(Nc4ccc(Cl)cc4)ncnc32)[C@H](O)[C@@H]1O [compound 92] | –
18 | 20 | Cc1ccc(-c2nn([C@@H]3O[C@H](CN=[N+]=[N-])[C@@H](O)[C@H]3O)c3ncnc(Nc4ccccc4)c23)cc1 [compound 93] | –
19 | 3 | COc1ccc(-c2nn([C@@H]3O[C@H](CN=[N+]=[N-])[C@@H](O)[C@H]3O)c3ncnc(Nc4ccccc4)c23)cc1 [compound 94] | –
20 | 15 | [N-]=[N+]=NC[C@H]1O[C@@H](n2nc(-c3ccc(Cl)cc3)c3c(Nc4ccccc4)ncnc32)[C@H](O)[C@@H]1O [compound 96] | –
21 | 1 | C[C@H]1O[C@@H](n2cc(-c3ccccc3)c3c(Nc4ccc(CC#N)cc4)ncnc32)[C@H](O)[C@@H]1O [compound 126] | –
22 | 4 | C[C@H]1O[C@@H](n2cc(-c3ccccc3)c3c(Nc4ccc(I)cc4)ncnc32)[C@H](O)[C@@H]1O [compound 128] | Carrageenan Paw (% inh) ip [2]: 18.9 % inh; Carrageenan Paw (% inh) po [2]: 0.0 % inh
23 | – | C[C@H]1O[C@@H](n2cc(-c3ccc(CNC(N)=O)cc3)c3c(Nc4ccc(F)cc4)ncnc32)[C@H](O)[C@@H]1O [compound 197] | Carrageenan Paw (% inh) ip [2]: 16.3 % inh; Carrageenan Paw (% inh) po [2]: 21.5 % inh

Row | SMILES | IC50 (adenosine kinase) [nM] | also measured
24 | COc1ccc(Nc2ncnc3c2c(-c2ccccc2)cn3[C@@H]2O[C@H](C)[C@@H](O)[C@H]2O)cc1 [compound 13] | 6 | –
25 | C[C@H]1O[C@@H](n2cc(-c3ccccc3)c3c(Nc4cccc(F)c4)ncnc32)[C@H](O)[C@@H]1O [compound 19] | 2 | –
26 | C[C@H]1O[C@@H](n2cc(-c3ccccc3)c3c(Nc4ccc(O)cc4)ncnc32)[C@H](O)[C@@H]1O [compound 20] | 32 | –
27 | C[C@H]1O[C@@H](n2cc(-c3ccc(F)cc3)c3c(Nc4ccccc4)ncnc32)[C@H](O)[C@@H]1O [compound 24] | 1 | Carrageenan Paw (% inh) ip [2]: 35.6 % inh; Carrageenan Paw (% inh) po [2]: 21.3 % inh
28 | COc1ccc(-c2cn([C@@H]3O[C@H](C)[C@@H](O)[C@H]3O)c3ncnc(Nc4ccc(C(N)=O)cc4)c23)cc1 [compound 31] | 2 | Carrageenan Paw (% inh) ip [2]: 17.2 % inh; Carrageenan Paw (% inh) po [2]: 0 % inh
29 | CSc1ccc(Nc2ncnc3c2c(-c2ccccc2)cn3[C@@H]2O[C@H](C)[C@@H](O)[C@H]2O)cc1 [compound 40] | 2 | –
30 | C[C@H]1O[C@@H](n2nc(-c3ccccc3)c3c(Nc4ccccc4)ncnc32)[C@H](O)[C@@H]1O [compound 86] | 4.5 | –
31 | [N-]=[N+]=NC[C@H]1O[C@@H](n2nc(-c3ccccc3)c3c(Nc4ccccc4)ncnc32)[C@H](O)[C@@H]1O [compound 87] | 4.5 | –
32 | COc1ccc(-c2nn([C@@H]3O[C@H](CN=[N+]=[N-])[C@@H](O)[C@H]3O)c3ncnc(Nc4ccc(C)cc4)c23)cc1 [compound 95] | 7 | –
33 | CCOCc1ccc(Nc2ncnc3c2c(-c2ccccc2)cn3[C@@H]2O[C@H](C)[C@@H](O)[C@H]2O)cc1 [compound 125] | 2 | Carrageenan Paw (% inh) ip [2]: 24.4 % inh; Carrageenan Paw (% inh) po [2]: 0.0 % inh
34 | C[C@H]1O[C@@H](n2cc(-c3ccccc3)c3c(Nc4ccc(NC(=O)C(F)(F)F)cc4)ncnc32)[C@H](O)[C@@H]1O [compound 129] | 2 | Total Bilirubin [1]: 0.52 mg/dL; SGPT [1]: 54 IU/L; SGOT [1]: 162 IU/L; Alkaline Phosphatase [1]: 110 IU/L; Carrageenan Paw (% inh) ip [2]: 48.9 % inh; Carrageenan Paw (% inh) po [2]: 35.7 % inh
35 | C[C@H]1O[C@@H](n2cc(-c3cccc(N)c3)c3c(Nc4ccc(F)cc4)ncnc32)[C@H](O)[C@@H]1O [compound 131] | 3 | Total Bilirubin [1]: 0.10 mg/dL; SGPT [1]: 65 IU/L; SGOT [1]: 120 IU/L; Alkaline Phosphatase [1]: 169 IU/L; Carrageenan Paw (% inh) ip [2]: 44.2 % inh; Carrageenan Paw (% inh) po [2]: 15.9 % inh
36 | C[C@H]1O[C@@H](n2cc(-c3ccc(C#N)cc3)c3c(Nc4ccc(F)cc4)ncnc32)[C@H](O)[C@@H]1O [compound 132] | 10 | –
